In patent US6365350B1, “Method of DNA sequencing” (The Institute of Physical and Chemical Research, priority 1997, dated 2002):
Entries after “also recorded” stand apart in the source; their conditions may differ.

Legend:
[1] = test system: 3′-dATP; assay: Inhibition of [α-32P]UTP incorporation by 3′-dATP in transcription reaction (relative activity for 3′-dATP); assay type: biochemical; conditions: relative value of inhibition degree of [α-32P]UTP incorporation by 100 μM 3′-dATP; wild type normalized to 1.000; 37° C., 60 minutes
[2] = test system: 3′-dATP, 3′-dGTP, 3′-dCTP, 3′-dUTP and derivatives thereof; conditions: for ability for incorporating 3′-dATP, 3′-dGTP, 3′-dCTP, 3′-dUTP and derivatives thereof: compared with wild type T7 RNA polymerase
Method: The T7 RNA polymerases introduced with mutations were purified, and their abilities of promoter sequence specific RNA synthesis and incorporation of ribonucleoside 5′-triphosphates including ATP, GTP, CTP, UTP and derivatives thereof, as well as 3′-DATP, 3′-dGTP, 3′-dCTP, 3′-dUTP and derivatives thereof were compared with those of wild type T7 RNA polymerase.
For two kinds of reaction mixture (with or without 3′-DATP, final concentration was 100 μM), the reaction was performed at 37° C. for 60 minutes. The whole reaction mixture was spotted on DE81 paper (Whatman), washed three times with phosphate buffer, and dried. The DE81 paper was placed into a scintillation vial, and radioactivity was measured using a scintillation counter (Beckman) for each reaction. Degree of inhibition of the [α-^32P]UTP incorporation was calculated by comparing the values obtained with and without 3′-dATP based on the measured radioactivity.

[3] = test system: XR-3′dCTP(n=1); assay: In vitro transcription with dye terminator XR-3′dCTP(n=1), sequence ladder (Example 1); assay type: biochemical; conditions: for incorporation efficiency for 3′-dCTP derivatives: peak intensities of sequence ladder vs wild type, FIGS. 30 and 31
Method: In vitro transcription reaction was performed by, for example, a partially modified version of the method of Melton, D. A., [Nucleic Acids Res., 12:7035-7056 (1984)].

[4] = test system: DNA containing T7 promoter; conditions: in vitro, compared with wild type T7 RNA polymerase
Method: Subsequent steps for purification of enzyme should be performed at a temperature lower than room temperature, preferably 0-5° C. unless otherwise indicated. The E. coli cells were washed with 10 times relative to the cell weight of a washing buffer (20 mM Tris-HCl, pH 8.1, 130 mM NaCl, 2 mM EDTANa2 at 25° C.), centrifuged again (5,000×g, 4° C., 10 minutes), suspended in 10 times in volume of a sonication buffer [50 mM Tris-HCl, pH 8.1, 100 mM NaCl, 0.1 mM EDTANa2, 5 mM dithiothreitol (DTT), 0.1 mM benzamidine, 30 μg/ml phenylmethylsulfonyl fluoride (PMSF), 10 μg/ml bacitracin], and sonicated by using Sonifier 450 (Branson) at 80W for more than 15 minutes to destroy the cells and reduce the viscosity of the cells. Then, the cell suspension is centrifuged at 12,000×g and 4° C. for ten minutes to remove the cell debris. 10% streptomycin sulfate was slowly added dropwise to the resulting supernatant to a final concentration of 2.0% with stirring, and stirring was further continued for 30 minutes. The supernatant was centrifuged at 12,000×g and 4° C. for ten minutes to remove precipitates, and slowly added with ammonium sulfate powder with stirring to form precipitates. In this case, precipitates were first collected by 30% saturation of ammonium sulfate (30% ammonium sulfate precipitation), and the resulting supernatant was further added with ammonium sulfate to 60% saturation with stirring to form precipitates again (30-60% ammonium sulfate precipitation). The supernatant was added again with ammonium sulfate powder to 90% ammonium sulfate saturation, and stirred at 4° C. for 1 hour, and the precipitates were collected by centrifugation. […] The.30′60% ammonium sulfate fraction was suspended in a small amount of column buffer (20 mM KPO4, pH 7.7, 100 mM NaCl, 1 mM DTT, 30 μg/ml PMSF), and desalted by dialysis against 500 ml of the same buffer for 16hours. The dialysate was applied on a heparin-Sepharose column of 5 ml volume (Pharmacia Biotech). Subsequently, the column was washed with the same buffer until any material absorbing ultraviolet ray at 280 nm disappeared, and eluted with a linear gradient of 0.1 M to 0.64 M NaCl in the same buffer of about 40 times volume of the column volume. The eluent was collected in test tubes as fractions of a suitable volume, and immediately subjected to SDS-acrylamide gel electrophoresis for protein analysis to identify fractions containing proteins around a molecular weight considered to be of the objective T7 RNA polymerase. […] The fractions containing the protein were collected, and desalted by dialysis against about 1 liter of the column buffer (20 mM KPO4, pH 7.7, 100 mM NaCl, 1 mM DTT, 30 μg/ml PMSF) for 16 hours. The fractions desalted by dialysis were applied to a Q-Sepharose column (Pharmacia Biotech) of 5 ml volume that preliminarily equilibrated with the same buffer, and the column was washed with the same buffer until any material absorbing ultraviolet ray at 280 nm disappeared, and eluted with a linear gradient of 0.1 M to 0.64 M NaCl in the same buffer of about 40 times volume of the column volume. The eluent was collected in test tubes as fractions of a suitable volume, and immediately subjected to SDS-acrylamide gel electrophoresis for protein analysis to identify fractions containing proteins around a molecular weight considered to be of the objective T7 RNA polymerase. […] The fractions containing the protein were collected, dialyzed against 500 ml of storage buffer (50% glycerol, 20 mM KPO4, pH 7.7, 100 mM NaCl, 1 mM DTT, 30 μg/ml PMSF) for 16 hours, and stored at −20° C. until use. In vitro RNA synthesis activity and activity of the contaminated ribonuclease of this sample were examined.

[5] = test system: plasmid vector pBluescriptKS(+) having T7 promoter; assay: Sequencing reaction by the dye terminator method, n=1 terminators (Example 2); conditions: four dye terminators n=1, 25 units polymerase, 37° C., 1 hour
Method: Sequencing reaction by the dye terminator method was performed utilizing the purified mutant T7 RNA polymerases F644Y and L665P/F667Y, and the wild type T7 RNA polymerase as follows for comparison.
More specifically, the reaction was performed in a total reaction volume of 10 μl containing a plasmid vector pBluescriptKS(+) having T7 promoter linealized by the reaction with a restriction endonuclease PvuII or ScaI as a template, 250 μM of R6G-3′-dATP(n=1), 25 μM of R110-3′-dGTP(n=1), 150 μM of XR-3′-dCTP(n=1), 50 μM of TMR-3′-dUTP(n=1), which were the dye terminators synthesized in the above Synthesis Examples 49, 52, 46 and 43 respectively, as derivatives of 3′-dNTP, 500 μM of GTP and UTP, 250 μM of ATP and CTP, 8 mM of MgCl2, 2 mM of spermidine-(HCl)3, 5 mM of DTT, 40 mM of Tris/HCl pH 8.0 (BRL, Gibco) and 25 units of wild type T7 RNA polymerase (BRL, Gibco or Nippon Gene) or the mutant T7 RNA polymerase F644Y at 37° C. for 1 hour. Then, to remove the unreacted dye terminators remained in the reaction product, the transcription product was purified by gel filtration using a Sephadex G-50 column (Pharmacia Biotech), and the purification product was evaporated to dryness using a centrifugal evaporator.
The dried reaction product was dissolved in 6 μl of formamide/EDTA/Blue dextran loading buffer according to the instruction manual Ver.1.0 of ABI PRISM 377 DNA Sequencing System available from Perkin-Elmer Japan, and 2 μl of the solution was analyzed by ABI 377 DNA Sequencer and an analysis program using denatured gel for sequencing analysis which contained 6 M urea/4% Long Ranger™ acrylamide solution (FMC).

[6] = target: T7 RNA polymerase (Escherichia phage T7, UniProt P00573); assay: Incorporation rate of 3′-dNTP measured with radioactive [α-32P]3′-dNTPs; assay type: biochemical
Method: Further, incorporation rate of 3′-deoxyribonucleotides is different depending on the kind of RNA polymerase, and this should be considered for the selection of the combination. The incorporation rate of 3′-dNTP by T7 RNA polymerase was measured by using radioactive [α-^32p]3′-dNTPs.

[7] = target: T1, T7 RNA polymerase (Gibco BRL) (Escherichia phage T7, UniProt P00573); assay: Examination of 3′-deoxyterminators, termination pattern (Reference Example 8); assay type: biochemical; conditions: terminator 10 μM, 37° C., 30 minutes, FIGS. 42A and 42B
T1 construct: purchased Gibco BRL
Method: PCR was performed by using the following materials (96° C. for one minute, 55° C. for 30 seconds, and 72° C. for one minute for one cycle, and 96° C. for 30 seconds, 55° C. for 30 seconds, 72° C. for one minute for 24 cycles), and the resulting PCR product (amplified DNA fragment of human thyroid stimulating hormone (TSH) β-subunit) was used as a template DNA.
Each material in a predetermined amount was added to a sample tube, filled up to a total volume of 10 μl with EXTaq buffer (Takara Shuzo), and used as a PCR mixture.
The template DNA (10 ng) was added to a sample tube containing each of the terminators, guanosine-5′-triphosphate (rGTP), uridine-5′-triphosphate (rUTP), adenosine-5′-triphosphate (rATP), and cytidine-5′-triphosphate (rCTP), MgCl2, spermidine-(HCl)3, dithiothreitol (DTT), Tris/HCl (pH 7.5), yeast inorganic pyrophosphatase (PPase) and T7 RNA polymerase in such amounts as their final concentrations should be as follows, filled up to a total amount of 10 μl with distilled water, and used as a sample.
After 30 minutes incubation of the sample at 37° C., the terminators not incorporated were removed by gel filtration using a Sephadex G25 column (Pharmacia), and the precipitates were collected by centrifugal separation. […] After cooling, 2 μl of the solution was applied to 4% sequencing gel, and electrophoresed on ABI377 fluorescence automatic sequencer (ABI). […]

[8] = 150 μM XR-3′dCTP(n=1), 25 units polymerase, 37° C., 1 hour

T7 RNA polymerase, sequence (P00573 whole entry): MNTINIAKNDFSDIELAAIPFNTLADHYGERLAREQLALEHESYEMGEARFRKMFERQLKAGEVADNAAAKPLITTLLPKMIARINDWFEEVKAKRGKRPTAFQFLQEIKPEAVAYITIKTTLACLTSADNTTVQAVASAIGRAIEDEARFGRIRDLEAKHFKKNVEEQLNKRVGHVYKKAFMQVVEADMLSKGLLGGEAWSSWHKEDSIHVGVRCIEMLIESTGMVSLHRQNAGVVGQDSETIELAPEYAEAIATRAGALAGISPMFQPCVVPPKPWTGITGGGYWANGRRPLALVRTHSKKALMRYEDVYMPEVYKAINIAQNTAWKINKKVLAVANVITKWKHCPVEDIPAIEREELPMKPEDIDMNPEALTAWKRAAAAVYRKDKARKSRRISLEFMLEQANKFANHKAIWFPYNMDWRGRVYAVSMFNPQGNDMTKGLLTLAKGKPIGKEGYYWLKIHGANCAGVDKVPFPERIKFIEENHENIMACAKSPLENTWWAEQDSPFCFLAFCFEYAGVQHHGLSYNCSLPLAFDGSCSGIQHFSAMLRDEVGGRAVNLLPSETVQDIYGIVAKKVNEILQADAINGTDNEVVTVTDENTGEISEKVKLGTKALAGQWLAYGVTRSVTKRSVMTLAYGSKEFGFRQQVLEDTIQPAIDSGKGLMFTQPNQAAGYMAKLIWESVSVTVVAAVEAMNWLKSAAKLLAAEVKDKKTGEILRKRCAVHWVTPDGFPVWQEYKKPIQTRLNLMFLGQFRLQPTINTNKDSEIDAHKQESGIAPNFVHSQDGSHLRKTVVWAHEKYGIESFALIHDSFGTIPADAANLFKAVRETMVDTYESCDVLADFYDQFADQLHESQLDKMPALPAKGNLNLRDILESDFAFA
T1 sequence (P00573 whole entry): as above

Row | Compound | Relative activity of RNA polymerase for 3′-dATP [1] | ability for incorporating 3′-dATP, 3′-dGTP, 3′-dCTP, 3′-dUTP and derivatives thereof [2] | RNA synthesis activity [4] | further results
1 | L665P/F667Y: mutant T7 RNA polymerase with mutations L665P and F667Y; labelled F667Y in FIGS. 29, 31, 32 | 4.711 | marked improvement; also recorded: markedly improved ability | maintained sufficient RNA synthesis activity | bias of incorporation observed in the wild type [2]: markedly reduced; incorporation efficiency for 3′-dCTP derivatives [3]: improved the incorporation efficiency; peak intensity in comparison with the wild type T7 RNA polymerase [5]: higher peak intensity with less fluctuation; sequence reading [5]: sequence reading was possible
2 | F644Y: mutant T7 RNA polymerase in which F (phenylalanine) residue 644 was replaced with Y (tyrosine) | 5.130 | marked improvement; also recorded: markedly improved ability | maintained sufficient RNA synthesis activity | bias of incorporation observed in the wild type [2]: markedly reduced; sequence ladder length compared with that afforded by the wild type T7 RNA polymerase [3, 8]: 3 times; transcription product length confirmed [3, 8]: about 700 bases; incorporation efficiency for 3′-dCTP derivatives [3]: improved the incorporation efficiency; peak intensity in comparison with the wild type T7 RNA polymerase [5]: higher peak intensity with less fluctuation; sequence reading [5]: sequence reading was possible
3 | Nc1ccn([C@@H]2O[C@H](COP(=O)(O)OP(=O)(O)OP(=O)(O)O)C[C@H]2O)c(=O)n1 [3′-dCTP] |  |  |  | order of incorporation rate of 3′-dNTP by T7 RNA polymerase [6]: 3′-dGTP>3′-dATP, 3′-dUTP>3′-dCTP
4 | Wild type: wild type T7 RNA polymerase, 883 amino acid residues [reference compound] | 1.000 |  | sufficient RNA synthesis activity | sequence reading [5]: almost impossible; also recorded: sequencing was not performed correctly
5 | Y639F: Y639F mutant of T7 RNA polymerase, at a location corresponding to Y526 of T7 DNA polymerase, described in the literature [reference compound] | 0.930 | no improvement | maintained RNA synthesis activity | 
6 | Nc1ncnc2c1ncn2[C@@H]1O[C@H](COP(=O)(O)OP(=O)(O)OP(=O)(O)O)C[C@H]1O [3′-dATP] |  |  |  | order of incorporation rate of 3′-dNTP by T7 RNA polymerase [6]: 3′-dGTP>3′-dATP, 3′-dUTP>3′-dCTP
7 | Nc1nc2c(ncn2[C@@H]2O[C@H](COP(=O)(O)OP(=O)(O)OP(=O)(O)O)C[C@H]2O)c(=O)[nH]1 [3′-dGTP] |  |  |  | order of incorporation rate of 3′-dNTP by T7 RNA polymerase [6]: 3′-dGTP>3′-dATP, 3′-dUTP>3′-dCTP
8 | TMR-labeled 3′-deoxyuridine-5′-triphosphate [TMR-Allyl-3′dUTP(n4)] |  |  |  | termination pattern / incorporation efficiency [7]: incorporated as efficiently as TMR-3′dUTP(n4)
9 | F646Y: mutant T7 RNA polymerase in which F646 was replaced with Y | 0.459 | no improvement | maintained RNA synthesis activity | 
10 | TMR-labeled 3′-deoxyuridine-5′-triphosphate [TMR-3′dUTP(n4)] |  |  |  | termination pattern / incorporation efficiency [7]: difference is not recognized
11 | F644Y/L665P: mutant T7 RNA polymerase with mutations F644Y and L665P | 5.130 | marked improvement; also recorded: comparable to that of the F644Y mutant | maintained sufficient RNA synthesis activity | 
12 | F782Y: mutant T7 RNA polymerase in which F782 was replaced with Y | 1.173 | slightly improved ability | maintained RNA synthesis activity | 
13 | O=c1ccn([C@@H]2O[C@H](COP(=O)(O)OP(=O)(O)OP(=O)(O)O)C[C@H]2O)c(=O)[nH]1 [3′-dUTP] |  |  |  | order of incorporation rate of 3′-dNTP by T7 RNA polymerase [6]: 3′-dGTP>3′-dATP, 3′-dUTP>3′-dCTP
14 | F733Y: mutant T7 RNA polymerase in which F733 was replaced with Y | 1.075 | slightly improved ability | slightly decreased RNA synthesis activity | 
